In paper PMC11642016 (International Journal of Molecular Sciences, 2024):
Where “and” joins values, the source holds several entries; their conditions need not be identical. Equal entries are not always repeated. Where two headings read alike, the source gives them in different places. One block for each compound: values may come before it.

Key:
[1] = tested on: PANC-1 and Fadu cells; assay: CellTiter-Glo viability, statements covering both cancer cell lines; type: cell-based, human; conditions: for viability at 25 µM: Homo sapiens, in either of the cancer cell lines, read-out: drop in viability at 25 µM
Method: The effects of the synthesized compounds on cell viability were measured using the CellTiter-Glo® luminescent cell viability assay (Promega, Madison, WI, USA), according to the manufacturer’s instructions. […] After seeding, cells were incubated for a further 48 h before treatment. Cells were treated with the compounds for 72 h. […] After treatment, the luminescence signal was recorded using a microplate reader (BioTek Synergy 2 Multi-Mode Reader, BioTek, Winooski, VT, USA).

[2] = tested on: Fadu cells; assay: CellTiter-Glo luminescent cell viability assay, Fadu; conditions: for viability at 2.8 µM / viability at 8.3 µM / viability at 25 µM: Homo sapiens, FaDu, first-set screening; for viability at 2.8 µM: read-out: Cell Viability (% of Control) 2.8 µM, Fadu; for viability at 8.3 µM: read-out: Cell Viability (% of Control) 8.3 µM, Fadu; for viability at 25 µM: read-out: Cell Viability (% of Control) 25 µM, Fadu; for Fadu Cell viability (% of controll): dose–response, individual replicates
[3] = tested on: PANC-1 cells; assay: CellTiter-Glo luminescent cell viability assay, PANC-1; conditions: for viability at 2.8 µM / viability at 8.3 µM / viability at 25 µM: Homo sapiens, PANC-1, 72 h, first-set screening; for viability at 2.8 µM: read-out: Cell Viability (% of Control) 2.8 µM, PANC-1; for viability at 8.3 µM: read-out: Cell Viability (% of Control) 8.3 µM, PANC-1; for viability at 25 µM: read-out: Cell Viability (% of Control) 25 µM, PANC-1; for PANC-1 Cell viability (% of controll): dose–response, individual replicates
[4] = tested on: PANC-1 cells; assay: Colony formation (clonogenic) assay; type: cell-based, human; conditions: 4 µM
[5] = tested on: HEK293T WT cells; assay: CellTiter-Glo cell viability assay, HEK293T WT; conditions: for HEK293T WT Cell viability (% of controll): 72 h, dose–response, individual replicates
Method: (§1) Primary fibroblast cultures were prepared from human skin biopsies and maintained in DMEM supplemented with 10% FBS, 1% penicillin-streptomycin, and 1% MEM Non-Essential Amino Acids Solution (Thermo Fisher Scientific). […] All cell lines were cultured in a humidified atmosphere at 37 °C and 5% CO2, passaged twice a week, and the experiments were performed on cells between passage 5 and 15. The cell lines were routinely screened for the absence of mycoplasma infection (DAPI staining).
(§2) The effects of the synthesized compounds on cell viability were measured using the CellTiter-Glo® luminescent cell viability assay (Promega, Madison, WI, USA), according to the manufacturer’s instructions. Briefly, cells were seeded onto a flat-bottomed, white 96-well plate (BRANDplates, cat. no.: 781965)), with the following densities: PANC-1: 750 cells/well, Fadu: 2000 cells/well, primary fibroblasts: 2000 cells/well, HEK293T WT: 1000 cells/well, HEK293T CLPP^−/−: 2500 cells/well. After seeding, cells were incubated for a further 48 h before treatment. Cells were treated with the compounds for 72 h. Three concentrations (25.0 µM; 8.3 µM; 2.8 µM) were applied during the initial cell viability screening, while for the determination of dose–response curves, 1.5-fold serially diluted compound concentrations were applied (range: 26 µM–0.7 µM). After treatment, the luminescence signal was recorded using a microplate reader (BioTek Synergy 2 Multi-Mode Reader, BioTek, Winooski, VT, USA).
(§3) Data analysis was performed using GraphPad Prism 9.5.0 software (GraphPad Software, San Diego, CA, USA). […] The dose–response curves were generated by four-parameter nonlinear regression, and the IC50 values were determined as the means ± SEM of the best-fit values of 3 independent measurements. The R^2 values were consistently above 0.93, indicating a strong fit of the model to the experimental data (Supplementary S.89). […] Dunnett’s post hoc test was applied to adjust for multiple comparisons, minimizing the likelihood of false positive results. Assumptions for ANOVA, including normality (assessed via QQ plots) and homogeneity of variance (tested using the Brown–Forsythe test), were verified. The following significance levels were applied: * p < 0.05, ** p < 0.01, *** p < 0.001, **** p < 0.0001. […] The tumor selectivity of the compounds was quantitatively characterized by the selectivity index (SI). This parameter was calculated as the ratio of the average best-fit IC50 value for primary fibroblasts and the best-fit IC50 value for the corresponding tumor cells (PANC-1 or Fadu).

[6] = tested on: non-tumorous primary fibroblast cells; assay: CellTiter-Glo luminescent cell viability assay, primary fibroblasts; conditions: for Primer fibroblast Cell viability (% of controll): 72 h, dose–response, individual replicates
[7] = tested on: HEK293T CLPP^−/− cells; assay: CellTiter-Glo cell viability assay, HEK293T CLPP−/− (ClpP dependence); conditions: for HEK293T CLPP-/- Cell viability (% of controll): individual replicates;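 as to all read-outs here: CellTiter-Glo luminescent signal read on a microplate reader once HEK293T CLPP−/− cells had been exposed to compounds for 72 h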
Method: as §1, §2, §3

[8] = 72 h, 2.8 µM, 72 h, mean ± SD, n = 2
[9] = 72 h, 8.3 µM, 72 h, mean ± SD, n = 2
[10] = 72 h, 25 µM, 72 h, mean ± SD, n = 2

Compound: NCC#Cc1ccc(CN2C(=O)C3=C(CCN(Cc4cccc(-n5cc(-c6ccccc6)nn5)c4)C3)N3CCN=C23)cc1 [3b]
viability at 25 µM [1]: 0 to 1%
viability at 2.8 µM [2, 8]: 103 ± 2%
viability at 8.3 µM [2, 9]: 95 ± 3%
viability at 25 µM [2, 10]: 22 ± 4%
viability at 2.8 µM ([3]; 2.8 µM, 72 h, mean ± SD, n = 2): 103 ± 8%
viability at 8.3 µM ([3]; 8.3 µM, 72 h, mean ± SD, n = 2): 84 ± 2%
viability at 25 µM ([3]; 25 µM, 72 h, mean ± SD, n = 2): 0%

Compound: NCC#Cc1cccc(CN2C(=O)C3=C(CCN(Cc4cccc(-n5cc(-c6ccccc6)nn5)c4)C3)N3CCN=C23)c1 [4b]
viability at 25 µM [1]: 0 to 1%
viability at 2.8 µM [2, 8]: 76 ± 1%
viability at 8.3 µM [2, 9]: 34 ± 3%
viability at 25 µM [2, 10]: 0%
viability at 2.8 µM ([3]; 2.8 µM, 72 h, mean ± SD, n = 2): 87 ± 5%
viability at 8.3 µM ([3]; 8.3 µM, 72 h, mean ± SD, n = 2): 70%
viability at 25 µM ([3]; 25 µM, 72 h, mean ± SD, n = 2): 0%

IC50 ([3]; read-out: IC50 Value ± SEM PANC-1, 72 h treatment, best-fit values, n = 3): 2700 ± 70 nM
IC50 ([3]; read-out: PANC-1 IC50 values, Mean, mean of independently fitted replicate IC50 values (Supplement S.6)): 2710 nM
IC50 ([3]; read-out: PANC-1 IC50 values, individual replicates n1-n3, IC50 independently determined for each replicate measurement (Supplement S.6)): 2790 nM and 2620 nM and 2720 nM
Compound: CNCC#Cc1cccc(CN2C(=O)C3=C(CCN(Cc4ccc(-n5cc(-[c-]6cccc6)nn5)cc4)C3)N3CCN=C23)c1.[Fe+2].c1cc[cH-]c1 [38a]
viable cells / colonies after shorter exposure ([4]; 24 h treatment followed by 5 days post-incubation): left only traces of viable cells
viable cells / colonies after longer exposure ([4]; 72 h treatment followed by 3 days post-incubation): no viable cells were discernible
concentration range of almost complete eradication of PANC-1 and Fadu cells with little to no cytotoxic effect toward fibroblasts ([1]; 72 h dose–response): 3000 to 4000 nM
HEK293T WT Cell viability (% of controll) ([5]; 0.4 μM): 106 % of controll and 101 % of controll and 99 % of controll and 100 % of controll
HEK293T WT Cell viability (% of controll) ([5]; 0.6 μM): 106 % of controll (2×) and 109 % of controll and 81 % of controll
HEK293T WT Cell viability (% of controll) ([5]; 1.0 μM): 82 % of controll and 90 % of controll and 94 % of controll and 81 % of controll
HEK293T WT Cell viability (% of controll) ([5]; 1.6 μM): 65 % of controll and 60 % of controll and 52 % of controll (2×)
HEK293T WT Cell viability (% of controll) ([5]; 2.5 μM): 11 % of controll and 6 % of controll and 5 % of controll (2×)
HEK293T WT Cell viability (% of controll) ([5]; 4.0 μM): 0 % of controll
HEK293T WT Cell viability (% of controll) ([5]; 6.4 μM): 0 % of controll
HEK293T WT Cell viability (% of controll) ([5]; 16.25 μM): 0 % of controll
HEK293T WT Cell viability (% of controll) ([5]; 26 μM): 0 % of controll
IC50 ([5]; read-out: HEK293T WT IC50 values, individual replicates n1-n4, IC50 independently determined for each replicate measurement (Supplement S.6)): 1.6 µM and 1.5 µM and 1.65 µM and 1.62 µM
IC50 ([5]; read-out: IC50 (µM) HEK293T WT, 72 h treatment, ± SEM, best-fit values, n = 4): 1.6 ± 0.04 µM
Fadu Cell viability (% of controll) ([2]; 0.7 μM, 72 h): 109 % of controll and 115 % of controll and 106 % of controll
Fadu Cell viability (% of controll) ([2]; 1 μM, 72 h): 110 % of controll and 106 % of controll and 105 % of controll
Fadu Cell viability (% of controll) ([2]; 1.5 μM, 72 h): 102 % of controll and 103 % of controll and 100 % of controll
Fadu Cell viability (% of controll) ([2]; 2.3 μM, 72 h): 96 % of controll and 91 % of controll and 87 % of controll
Fadu Cell viability (% of controll) ([2]; 3.4 μM, 72 h): 43 % of controll and 13 % of controll (2×)
Fadu Cell viability (% of controll) ([2]; 5.1 μM, 72 h): 0 % of controll
Fadu Cell viability (% of controll) ([2]; 7.7 μM, 72 h): 0 % of controll
Fadu Cell viability (% of controll) ([2]; 17.3 μM, 72 h): 0 % of controll
Fadu Cell viability (% of controll) ([2]; 26 μM, 72 h): 0 % of controll
Cell Viability (% of Control) 2.8 µM ([2]; Fadu, 2.8 µM, 72 h, second-set screening, mean ± SD, n = 2): 85 ± 16 % of Control
Cell Viability (% of Control) 8.3 µM ([2]; Fadu, 8.3 µM, 72 h, second-set screening, mean ± SD, n = 2): 0 ± 1 % of Control
Cell Viability (% of Control) 25 µM ([2]; Fadu, 25 µM, 72 h, second-set screening, mean ± SD, n = 2): 0 ± 0 % of Control
Selectivity Index (SI) Fibroblast/Fadu ([2]; ratio of mean best-fit IC50 for primary fibroblasts and best-fit IC50 for Fadu): 1.6
IC50 ([2]; read-out: Fadu IC50 values, individual replicates n1-n3, IC50 independently determined for each replicate measurement (Supplement S.6)): 3.2 µM and 2.75 µM (2×)
IC50 ([2]; read-out: IC50 Value ± SEM Fadu, 72 h treatment, best-fit values, n = 3): 2900 ± 60 nM
PANC-1 Cell viability (% of controll) ([3]; 0.7 μM, 72 h): 112 % of controll and 107 % of controll and 109 % of controll
PANC-1 Cell viability (% of controll) ([3]; 1 μM, 72 h): 107 % of controll and 114 % of controll and 110 % of controll
PANC-1 Cell viability (% of controll) ([3]; 1.5 μM, 72 h): 116 % of controll and 119 % of controll and 108 % of controll
PANC-1 Cell viability (% of controll) ([3]; 2.3 μM, 72 h): 97 % of controll and 105 % of controll and 115 % of controll
PANC-1 Cell viability (% of controll) ([3]; 3.4 μM, 72 h): 2 % of controll (2×) and 4 % of controll
PANC-1 Cell viability (% of controll) ([3]; 5.1 μM, 72 h): 0 % of controll
PANC-1 Cell viability (% of controll) ([3]; 7.7 μM, 72 h): 0 % of controll
PANC-1 Cell viability (% of controll) ([3]; 17.3 μM, 72 h): 0 % of controll
PANC-1 Cell viability (% of controll) ([3]; 26 μM, 72 h): 0 % of controll
Cell Viability (% of Control) 2.8 µM ([3]; PANC-1, 2.8 µM, 72 h, second-set screening, mean ± SD, n = 2): 44 ± 41 % of Control
Cell Viability (% of Control) 8.3 µM ([3]; PANC-1, 8.3 µM, 72 h, second-set screening, mean ± SD, n = 2): 0 ± 0 % of Control
Cell Viability (% of Control) 25 µM ([3]; PANC-1, 25 µM, 72 h, second-set screening, mean ± SD, n = 2): 0 ± 0 % of Control
Selectivity Index (SI) Fibroblast/PANC-1 ([3]; ratio of mean best-fit IC50 for primary fibroblasts and best-fit IC50 for PANC-1): 1.7
Primer fibroblast Cell viability (% of controll) ([6]; 0.7 μM): 97 % of controll and 105 % of controll and 109 % of controll
Primer fibroblast Cell viability (% of controll) ([6]; 1 μM): 111 % of controll and 113 % of controll and 100 % of controll
Primer fibroblast Cell viability (% of controll) ([6]; 1.5 μM): 105 % of controll and 113 % of controll and 100 % of controll
Primer fibroblast Cell viability (% of controll) ([6]; 2.3 μM): 105 % of controll and 107 % of controll and 101 % of controll
Primer fibroblast Cell viability (% of controll) ([6]; 3.4 μM): 108 % of controll (2×) and 100 % of controll
Primer fibroblast Cell viability (% of controll) ([6]; 5.1 μM): 9 % of controll (2×) and 6 % of controll
Primer fibroblast Cell viability (% of controll) ([6]; 7.7 μM): 0 % of controll
Primer fibroblast Cell viability (% of controll) ([6]; 17.3 μM): 0 % of controll
Primer fibroblast Cell viability (% of controll) ([6]; 26 μM): 0 % of controll
IC50 ([6]; read-out: IC50 Value ± SEM Primary Fibroblast, 72 h treatment, best-fit values, n = 3): 4600 ± 830 nM
IC50 ([6]; read-out: Primary fibroblast IC50 values, Mean, mean of independently fitted replicate IC50 values (Supplement S.6), ONC201 value mathematically estimated from inflection point): 4630 nM
IC50 ([6]; read-out: Primary fibroblast IC50 values, individual replicates n1-n3, IC50 independently determined for each replicate (Supplement S.6), ONC201 value mathematically estimated from inflection point, viability stayed above 50%): 4800 nM and 4280 nM
HEK293T CLPP-/- Cell viability (% of controll) ([7]; 0.4 μM, 72 h, dose–response, listed as CZT456, 0.4 µM): 109 % of controll and 108 % of controll and 110 % of controll and 114 % of controll
HEK293T CLPP-/- Cell viability (% of controll) ([7]; 0.6 μM, 72 h, dose–response, listed as CZT456, 0.6 µM): 111 % of controll and 109 % of controll and 110 % of controll
HEK293T CLPP-/- Cell viability (% of controll) ([7]; 1.0 μM, 72 h, dose–response, listed as CZT456, 1 µM): 105 % of controll and 107 % of controll and 106 % of controll
HEK293T CLPP-/- Cell viability (% of controll) ([7]; 1.6 μM, 72 h, dose–response, listed as CZT456, 1.6 µM): 92 % of controll and 96 % of controll and 103 % of controll and 93 % of controll
HEK293T CLPP-/- Cell viability (% of controll) ([7]; 2.5 μM, 72 h, dose–response, listed as CZT456, 2.5 µM): 41 % of controll and 59 % of controll and 55 % of controll and 48 % of controll
HEK293T CLPP-/- Cell viability (% of controll) ([7]; 4.0 μM, 72 h, dose–response, listed as CZT456, 4 µM): 1 % of controll and 8 % of controll and 9 % of controll
HEK293T CLPP-/- Cell viability (% of controll) ([7]; 6.4 μM, 72 h, dose–response): 0 % of controll
HEK293T CLPP-/- Cell viability (% of controll) ([7]; 16.25 μM, 72 h, dose–response): 0 % of controll
HEK293T CLPP-/- Cell viability (% of controll) ([7]; 26 μM, 72 h, dose–response): 0 % of controll
effect on the viability of HEK293T CLPP^−/− cells ([7]; dose–response, 72 h, compared with HEK293T WT): maintained
IC50 ([7]; read-out: IC50 (µM) HEK293T CLPP^−/−, 72 h treatment, ± SEM, best-fit values, n = 4): 2.4 ± 0.03 µM
